Data published in publication doi:10.1101/2025.09.12.675753, “In search of nonlipogenic ABCA1 inducers (NLAI): precision coregulator TR-FRET identifies diverse signatures for LXR ligands” (bioRxiv, 2025).
Entries after “also recorded” stand apart in the source; their conditions may differ. Where two headings read alike, the source gives them in different places. Values belong to the compound of their own block, whether it stands above or below them.

Key:
[1] = test system: high-fat diet (HFD) mouse model; conditions: cited from earlier work
LXRα [2] = target: T1, LXRα (Homo sapiens, UniProt Q13133)
T1 sequence (Q13133 209-447 limits assumed): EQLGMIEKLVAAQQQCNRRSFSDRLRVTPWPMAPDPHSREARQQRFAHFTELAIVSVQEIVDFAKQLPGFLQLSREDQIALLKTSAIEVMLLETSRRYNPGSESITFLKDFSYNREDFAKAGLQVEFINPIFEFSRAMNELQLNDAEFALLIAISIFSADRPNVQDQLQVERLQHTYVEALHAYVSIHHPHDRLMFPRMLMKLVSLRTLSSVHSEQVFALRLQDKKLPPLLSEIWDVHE

[3] = test system: SRE promoter luciferase (SRE-luc) in HepG2 cells; assay: SRE-luc reporter in HepG2 cells; type: cell-based, human; conditions: for SRE-luc response: HepG2, normalized to T0
Description: Our phenotypic high throughput screen (HTS) approach to identify nonlipogenic ABCA1 Inducers (NLAI) originally used counterscreening with a SREBP1c-luciferase reporter (linked to the SREBF1 gene promoter) in human hepatocarcinoma HepG2 cells.[81] Unwanted lipogenesis is mediated by LXR agonists via direct transcriptional activation and indirectly by the effects of SREBP1c.[57] [109] SREBP1c enhances transcription of genes required for synthesis of fatty acids and TG and as the dominant isoform in liver is associated most closely with lipogenesis and TG elevation.[109] […] Binding of SREBP1c to the sterol response element (SRE) induces transcription of lipogenic genes associated with elevated TG. To better model the lipogenic axis in hepatocytes, we use HepG2 cells stably transfected with a luciferase reporter downstream of a SRE promoter (SRE-luc), activation of which requires SREBP1c maturation.
HepG2 cells were cotransfected with SRE (LDLR)-NlucP SuperPiggyBac Transposon and a separate Transposase plasmid (System Biosciences). Cells were expanded for multiple passages followed by selection with puromycin (1ug/ml). Stable cells constitutively express GFP allowed for FACS enrichment and/or cell cloning. Initially, stable pools were compared to low expressing and high expressing enriched pools. The optimal pool was selected based on assay performance (Z’) and was grown and maintained as above, with the addition of 1.0 μg/mL of puromycin biweekly.

E3/4FAD mice = conditions: cited from earlier work
LXRα [4] = target: T1, LXRα; conditions: for SRC-1 recruitment to LXRα, efficacy relative to T0: ligand alone, normalized to T0 (100%); for Effect on 24HC agonism at LXRα: in the presence of 24HC (3 μM)
LXR = assay: CRT signature categorization, heat map of response at 1 μM; type: biochemical; conditions: signatures of Table 1
Description: With the knowledge that corepressors bind to the apo-receptor; whereas coactivator binding requires a ligand-induced conformational change, we can categorize all ligands using their CRT profiles: ligands induce 3 conformations with CoR (destabilizing D, stabilizing S, neutral N) and only 2 conformations with CoA (stabilizing S, neutral N) (Table 1).
To determine which LXR ligands fit with these theoretical CRT signatures, concentration-response curves were interpolated to measure normalized response at 1 μM ligand concentration and plotted as a heat map (Figs 9A, S8).
The CRT signatures of the three agonist and three antagonist classifications were modelled in the same heat map using signatures defined in Table 1 and the measured responses to the real LXR ligands in our study.

LXRα [5] = target: T1, LXRα; assay: Corepressor (NCOR2, SMRT2) binding CRT, LXRα; conditions: absence of coactivator
LXRβ [6] = target: T2, LXRβ (Homo sapiens, UniProt P55055)
T2 sequence (P55055 222-460 limits assumed): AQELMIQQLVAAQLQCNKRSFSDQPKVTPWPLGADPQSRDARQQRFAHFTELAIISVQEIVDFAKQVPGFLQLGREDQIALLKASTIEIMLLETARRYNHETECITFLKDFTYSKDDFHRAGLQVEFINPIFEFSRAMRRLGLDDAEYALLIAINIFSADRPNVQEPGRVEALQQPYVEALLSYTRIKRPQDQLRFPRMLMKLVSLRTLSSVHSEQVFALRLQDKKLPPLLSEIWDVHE

NASH mouse model = conditions: cited from earlier work
LXRβ [7] = target: T2, LXRβ; assay: Corepressor (NCOR2, SMRT2) binding CRT, LXRβ
[8] = test system: ABCA1-promoter luciferase in CCF-STTG1 cells; assay: ABCA1-luc reporter in CCF-STTG1 astrocytoma cells; type: cell-based, human; conditions: for ABCA1-luc response: 24 hr incubation, normalized to T0 (100%)
Description: Astrocytoma CCF-STTG1 cells, stably transfected with an ABCA1-promoter linked to a luciferase response element provide a model for ABCA1 induction in astrocytes.[81] […] Apparent inverse agonist activity in cell-based assays can result from true inverse agonist recruitment of corepressors or from antagonist activity towards endogenous sterol LXR agonists. Although we use serum stripped media, antagonism of endogenous LXR agonists cannot be ruled out.
Low passage CCF-STTG1 cells (20,000 cells/well) were seeded in 96-well plates in media containing charcoal-stripped FBS and incubated at 37 °C and 5% CO2 for 24 hours prior to a 24-hour treatment. All compounds were dissolved in DMSO, and final DMSO concentrations never exceeded 1%. After a 24-hour incubation period, add a volume of ONE-GLO™EX Reagent that is equal to the volume of culture medium in each well and incubate for 3 to 5 minutes on the shaker. The luminescent activity of compounds ([…], 10-fold dilution) was examined using the ONE-GLO™EX assay (Promega). The data was normalized to DMSO. The assays were performed in duplicates for each concentration, and the EC50 values were determined from non-linear regression analysis of the dose-response curve generated in GraphPad Prism 9.

[9] = test system: SREBF1, FAS, and SCD1 in HepG2 cells; assay: RT-PCR of lipogenic genes in HepG2 cells; type: cell-based, human; conditions: HepG2, 24 hours
Description: Owing to the anomalous response in the reporter assay, we measured lipogenic genes, SREBF1, FAS, and SCD1 by RT-PCR in HepG2 cells in response to treatment with the biphenyl sulfones (Figs 5G–I).
HepG2 cells were seeded in 12-well plates and treated with compounds for 24 hours. Following treatment, cells were washed once with PBS and then lysed in 350 μL of RLT buffer (Qiagen). Lysates were immediately frozen at −80 °C until RNA extraction. Total RNA was extracted using RNeasy Plus Mini columns (Qiagen) according to the manufacturer’s instructions. RNA concentration and purity were assessed using the A260/A280 ratio measured on a Synergy Neo2 plate reader (BioTek). For cDNA synthesis, 2 μg of total RNA was reverse transcribed using SuperScript III reverse transcriptase (Invitrogen), oligo(dT)12–18 primers, and dNTP mix, following the manufacturer’s protocol. Quantitative PCR was performed using TaqMan Gene Expression Master Mix (Invitrogen) with 2 μL of cDNA and gene-specific TaqMan probes in a 20 μL reaction volume per well. The following TaqMan assays were used: ABCA1: Hs01059101_m1, SREBF1: Hs01088691_m1, SCD: Hs01682761_m1, FASN: Hs01005622_m1, and HPRT1 (endogenous control): Hs02800695_m1. qPCR was performed on a StepOne Real-Time PCR System (Applied Biosystems), and gene expression was quantified using the ΔΔCt method.

participants = test system: participants; design: method as in PMID 19398602; conditions: 300 mg dose; cited from earlier work
primates = test system: primates; design: method as in PMID 19318684; conditions: 50 mg/kg/day p.o., returned to baseline at day 7; cited from earlier work
hamsters = test system: hamsters; design: method as in PMID 19318684; conditions: cited from earlier work
[10] = cited from earlier work
obese mice on HFD = conditions: cited from earlier work
[11] = test system: mouse model of non-alcoholic steatohepatitis (NASH); conditions: cited from earlier work
LXRβ [12] = target: T2, LXRβ; assay: Multiplex precision CRT (pCRT), SRC1 and NCoR2, LXRβ; type: biochemical; design: NR-LBD with short coregulator peptides as used in the present work; purchased Thermo Fisher Scientific PV4660; conditions: SRC1-btn 200 nM, NCoR2-FL 200 nM
mice = conditions: highest dose 30 mg/kg qd; cited from earlier work

Recruitment of coactivator TRAP220 to LXRα (LXRα [2]): very minimal recruitment | EC50 ([3]; Homo sapiens, HepG2 SRE-luc, read-out: EC50, SRE activation): 2800 nM
Structure (SMILES): CCOC(=O)c1cccc(NC(=O)c2sc(Cl)cc2S(=O)(=O)N(C)c2ccc(OCC)c(OCC)c2)c1 [CL2–57]
Plasma and hepatic TG levels [1]: attenuated diet-induced increases in plasma and hepatic TG levels

Recruitment of coactivator TRAP220 to LXRα (LXRα [2]): very minimal recruitment | SRC-1 recruitment to LXRα, efficacy relative to T0 (LXRα [4]): partial agonist activity at LXRα
Structure (SMILES): CCOC(=O)c1cc(Cl)cc(NC(=O)c2sc(Cl)cc2S(=O)(=O)N(C)c2ccc(OCC)c(OC)c2)c1 [CL3–3]
ABCA1 expression, APOE lipidation, AD phenotypes, TG (E3/4FAD mice): increased ABCA1 expression, enhanced APOE lipidation and reversed multiple AD phenotypes, without increasing TG

Structure (SMILES): Cc1cc(C)c(S(=O)(=O)N(Cc2ccc(-c3cccc(S(C)(=O)=O)c3)cc2)Cc2ccc(C(F)(F)F)o2)c(C)c1 [GSK2033]
CRT signature category (LXR): HA (hard antagonist (HA)) | Corepressor (NCOR2 and SMRT2) binding to LXRα, ligand effect (LXRα [5]): does not stabilize a conformation that disrupts corepressor binding to LXRα | Effect on 24HC agonism at LXRβ (LXRβ [6]): antagonized the agonism of 24HC at LXRβ | SRC-1 recruitment to LXRβ, efficacy/potency relative to T0 (LXRβ [6]): neither ligand stabilized the LXR:SRC1 complex alone | Expression of lipogenic genes, including FAS and SREBP1c (NASH mouse model): increased rather than suppressed | SRE-luc response [3]: neutral or antagonist response; also recorded: mixed antagonist/inverse agonist phenotype | SMRT2 binding to LXRβ, ligand effect (LXRβ [7]): selectively displace SMRT2 from LXRβ | ABCA1-luc response [8]: inverse agonist activity in cells; also recorded: mixed antagonist/inverse agonist phenotype | Lipogenic gene transcription (SREBF1, FAS, SCD1) by RT-PCR [9]: reducing lipogenic gene transcription below baseline | Effect on 24HC agonism at LXRα (LXRα [4]): without effect on LXRα | SRC-1 recruitment to LXRα, efficacy relative to T0 (LXRα [4]): neither ligand stabilized the LXR:SRC1 complex alone

Structure (SMILES): Fc1ccc(-c2c3cccc(C(F)(F)F)c3nn2Cc2ccc(F)cc2Cl)cc1 [LXR-623]
Adverse effects (participants): all 6 participants on the highest 300 mg dose reported neurologic or psychiatric adverse effects | Liver TG (primates): significant increase in liver TG was observed but only at high dose | Plasma TG (hamsters): did not cause a dose-dependent increase in plasma TG

Structure (SMILES): CCOC(=O)c1ccc(CN(Cc2ccc(-c3cccc(S(C)(=O)=O)c3)cc2)S(=O)(=O)c2c(C)cc(C)cc2C)o1 [SR9238]
Metabolic lability / systemic availability [10]: metabolically labile | Plasma TG (obese mice on HFD): plasma TG was suppressed | CRT signature category (LXR): IA (inverse agonist (IA)) | Hepatic inflammation and fibrosis [11]: significantly reduced hepatic inflammation and fibrosis | Corepressor (NCOR2 and SMRT2) binding to LXRα, ligand effect (LXRα [5]): strong agonist responses | Effect on 24HC agonism at LXRβ (LXRβ [6]; in the presence of 24HC (3 μM)): antagonized the agonism of 24HC at LXRβ | SRC-1 recruitment to LXRβ, efficacy/potency relative to T0 (LXRβ [6]; ligand alone, normalized to T0 (100%)): neither ligand stabilized the LXR:SRC1 complex alone | SRE-luc response [3]: anomalous activation of SRE at concentrations above 1 μM; also recorded: lowered SRE activation below baseline; also recorded: neutral or antagonist response; also recorded: inverse agonist at < 3 μM concentration | Corepressor (NCOR2 and SMRT2) binding to LXRβ, ligand effect (LXRβ [7]; absence of coactivator): strong agonist responses | ABCA1-luc response [8]: inverse agonist activity in cells | Lipogenic gene transcription (SREBF1, FAS, SCD1) by RT-PCR [9]: reducing lipogenic gene transcription below baseline | Effect on 24HC agonism at LXRα (LXRα [4]): without effect on LXRα | SRC-1 recruitment to LXRα, efficacy relative to T0 (LXRα [4]): neither ligand stabilized the LXR:SRC1 complex alone

NCOR2 displacement from LXRβ in the presence of SRC1 (pCRT) (LXRβ [12]): fully displaced | Recruitment of coactivator TRAP220 to LXRα (LXRα [2]): very minimal recruitment | SMRT2 binding to LXRβ, ligand effect (LXRβ [7]; absence of coactivator): did not perturb SMRT2 binding to LXRβ
Structure (SMILES): CC(C)(O)c1cn(-c2ccc(-c3cccc(S(C)(=O)=O)c3)cc2)c(C(C)(C)c2ccccc2Cl)n1 [XL652]
Corepressor (NCOR2 and SMRT2) binding to LXRα, ligand effect (LXRα [5]): strongly stabilized the corepressor-bound conformation | SMRT2 binding to LXRα, ligand effect (LXRα [5]): stabilization of SMRT2 corepressor binding to LXRα | SRE-luc response [3]: anomalous activation of SRE at concentrations above 1 μM; also recorded: little or no activation of SRE at submicromolar concentrations | Efficacy of SRE activation ([3]; concentrations ≤ 1 μM): 20–25 % of T0 | NCOR2 binding to LXRβ, ligand effect (LXRβ [7]; absence of coactivator): weakly destabilized the NCOR2 complex with both LXR isoforms | Weaker potency for ABCA1 induction compared to XL041 ([8]; versus XL041): more than 100 fold | Plasma triglycerides (mice): elevated plasma triglycerides only at the highest dose
